This is an account of results in ChEMBL document CHEMBL1800007, “Synthesis, activity, and structural analysis of novel α-hydroxytropolone inhibitors of human immunodeficiency virus reverse transcriptase-associated ribonuclease H” (J Med Chem, 2011).

What is called IC50 is the concentration that gives 50% inhibition. As a reminder, the CC50 is the concentration giving 50% cytotoxicity. A higher CC50 goes with lower toxicity to the cells. As usually defined, the EC50 is the concentration needed to bring the measured effect to its halfway point.

SMILES strings stand for the structures. Active and inactive are the calls of the source. The rule behind the calls is not given here. A value given as a limit tells only on which side of the number the result lay.

In data set [1] the target is Human immunodeficiency virus type 1 reverse transcriptase (Human immunodeficiency virus 1, UniProt Q72547). Description: Inhibition of RNase H activity of his6-tagged HIV1 HXB2 reverse transcriptase p66/p51 expressed in Escherichia coli assessed as substrate cleavage at polypurine tract by PAGE-based fluorescent imaging method.
The subject of data set [2] is Human immunodeficiency virus 1. As to conditions: at 20 µM.
Description: Inhibition of DNA dependent DNA polymerase activity of his6-tagged HIV1 HXB2 reverse transcriptase p66 E478Q/p51 mutant expressed in Escherichia coli at 20 uM using fluorescently tagged duplex DNA substrate by PAGE and fluorescent imaging method
The subject of data set [3] is CEM-SS. Kind of data set: (§1) Cytotoxicity against human CEM-SS cells. It is filed as cell-based. As to conditions: cem-ss.
Data set [4] deals with Human immunodeficiency virus 1. The following applies: at 20 µM. The source holds these as a separate data set.
Description: Inhibition of DNA dependent DNA polymerase activity of his6-tagged HIV1 HXB2 reverse transcriptase p66 D549A/p51 mutant expressed in Escherichia coli at 20 uM using fluorescently tagged duplex DNA substrate by PAGE and fluorescent imaging method
The test system of data set [5] is Human immunodeficiency virus 1. Description: Antiviral activity against HIV1 RF infected in human CEM-SS cells assessed as protection against virus-induced cytopathic effect. It is filed as functional, organism-based. (Damage to the host cells serves as the signal in cytopathic effect assays.)
Data set [6] has as its target Human immunodeficiency virus type 1 reverse transcriptase (Human immunodeficiency virus 1) (UniProt Q72547). As to conditions: HXB2, at 20 µM.
Description: Inhibition of DNA dependent DNA polymerase activity of his6-tagged HIV1 HXB2 reverse transcriptase p66/p51 expressed in Escherichia coli at 20 uM using fluorescently tagged duplex DNA substrate by PAGE and fluorescent imaging method
Data set [7] can be described thus: as §1. In kind it is cell-based. The following applies: CEM-SS cells.
Data set [8] can be described thus: Therapeutic index, CC50 for human CEM-SS cells to EC50 for HIV1 RF. It is filed as cell-based.
[9] abbreviates: Human immunodeficiency virus 1, RF, CEM-SS, read-out: EC50.

As to `Cc1cc(O)c(=O)c(O)c2c1C[C@@H](C(C)(O)CNc1ccccc1)CC2` (mixture of isomers), the IC50 in data set [1] came to 1.2 µM. The inhibition entry in data set [2] and in data set [4] was “Active” in each case. The same molecule came in with a half-maximal cytotoxic concentration (CC50) in data set [3] of 31.7 µM. For the same molecule, the EC50 in data set [5] (setting [9]) came to 7.4 µM.
For the molecule `CCSCC(C)(O)[C@H]1CCc2c(c(C)cc(O)c(=O)c2O)C1` (mixture of isomers), the IC50 in data set [1] is 0.38 µM. The inhibition result in data set [2] and in data set [4] was “inactive” throughout. For the same molecule, it took 25.8 µM to reach half-maximal cytotoxicity in data set [3] (CC50). Moreover, the “inhibition (INH)” value in data set [5] is listed as less than 50%.
In the case of `Cc1cc(O)c(=O)c(O)c2c1C[C@@H](C(C)(O)CSc1ccccc1)CC2` (mixture of isomers), the 50% inhibitory concentration (IC50) in data set [1] amounted to 0.93 µM. The inhibition result in data set [2] and in data set [4] was “inactive” each time. The same molecule displayed a CC50 in data set [3] of 17.8 µM. Besides, the concentration giving a half-maximal response (EC50) in data set [5] (setting [9]) worked out at 11.5 µM.
In the case of `Cc1cc(O)c(=O)c(O)c2c1C[C@@H](C(C)(O)Cn1ccnc1)CC2` (mixture of isomers), the inhibition entry in data set [2], in data set [6] and in data set [4] was “inactive” throughout. The 50% cytotoxic concentration (CC50) in data set [3] was more than 50 µM. Further, in data set [5] (setting [9]), the concentration for a half-maximal effect (EC50) came to 42.1 µM.
As to `Cc1cc(O)c(=O)c(O)c2c1C[C@@H](C(C)O)CC2` (mixture of isomers), the IC50 in data set [1] turned out to be 0.68 µM. In addition, the inhibition result in data set [2] and in data set [4] was “inactive” each time. For the same molecule, in data set [3], the cytotoxic concentration (CC50) was 26.1 µM. In data set [5] (setting [9]), the concentration giving a half-maximal response (EC50) is 6.9 µM.
Consider `CC(=O)Oc1cc(C)c2c(c(OC(C)=O)c1=O)CC[C@H](C(C)(O)CO)C2` (mixture of isomers), for which the IC50 in data set [1] was 1.9 µM. For the same molecule, the inhibition result in data set [2], in data set [6] and in data set [4] was “inactive” throughout. This molecule also gave a cytotoxic concentration (CC50) in data set [7] of more than 50 µM. For the same molecule, the EC50 result in data set [5] (cem-ss) is given as “Not Active”.
In the case of `CCS(=O)(=O)CC(C)(O)[C@H]1CCc2c(c(C)cc(O)c(=O)c2O)C1` (mixture of isomers), the IC50 in data set [1] was 0.24 µM. The inhibition result in data set [2] and in data set [4] was “inactive” in each case. This molecule returned a CC50 in data set [3] of 10.4 µM. The “inhibition (INH)” value in data set [5] is on record as less than 50%.
Take `Cc1cc(O)c(=O)c(O)c2c1C[C@@H](C(C)NCc1ccccc1)CC2` (mixture of isomers): in data set [1], the 50% inhibitory concentration (IC50) came out at 0.96 µM. Moreover, the inhibition result in data set [2] and in data set [4] was “inactive” each time. This molecule gave a CC50 in data set [3] of 16.7 µM. Besides, the half-maximal effective concentration (EC50) in data set [5] (setting [9]) was 10.6 µM.
`Cc1cc(O)c(=O)c(O)c2c1C[C@@H](C(C)(O)CS(=O)(=O)c1ccccc1)CC2` (mixture of isomers): the half-inhibitory concentration (IC50) in data set [1] turned out to be 0.51 µM. Further, the inhibition entry in data set [2] and in data set [4] was “inactive” in each case. In addition, the CC50 in data set [3] is more than 50 µM. In addition, the concentration for a half-maximal effect (EC50) in data set [5] (setting [9]) came to 21.2 µM.
On to `Cc1cc(O)c(=O)c(O)c2c1C[C@@H](C(C)(O)CNCc1ccccc1F)CC2` (mixture of isomers), for which the half-inhibitory concentration (IC50) in data set [1] came to 1.2 µM. Moreover, the inhibition result in data set [2] and in data set [4] was “inactive” each time. The CC50 in data set [3] was more than 50 µM. Also, the concentration giving a half-maximal response (EC50) entry in data set [5] (cem-ss) is listed as “Not Active”.
As for `Cc1cc(O)c(=O)c(O)c2c1C[C@@H](C(C)(O)CSCc1ccccc1)CC2` (mixture of isomers), the IC50 in data set [1] was determined as 1.3 µM. Moreover, the inhibition result in data set [2] and in data set [4] was “inactive” in each case. For the same molecule, in data set [3], the CC50 was 17.4 µM. In addition, the EC50 in data set [5] (setting [9]) came to 4.2 µM.
In the case of `C=C(C)[C@H]1CCc2c(c(C)cc(O)c(=O)c2O)C1`, the IC50 in data set [1] worked out at 0.6 µM. Also, the inhibition entry in data set [2], in data set [6] and in data set [4] was “inactive” throughout. Moreover, in data set [5] (cem-ss), the concentration giving a half-maximal response (EC50) entry was “Not Active”.
For the molecule `Cc1cc(O)c(=O)c(O)c2c1C[C@@H](C(C)(O)C[S+]([O-])c1ccccc1)CC2` (mixture of isomers), in data set [1], the IC50 was determined as 1.3 µM. The inhibition result in data set [2] and in data set [4] was “Active” each time. This molecule registered a CC50 in data set [3] of more than 50 µM. The EC50 in data set [5] (setting [9]) is 14.5 µM.
On to `CCN(CC)CC(C)(O)[C@H]1CCc2c(c(C)cc(O)c(=O)c2O)C1` (mixture of isomers), for which the IC50 in data set [1] was 0.5 µM. For the same molecule, the inhibition result in data set [2], in data set [6] and in data set [4] was “inactive” each time. In data set [3], this molecule came in with a CC50 of more than 50 µM. Besides, the “inhibition (INH)” value in data set [5] is on record as less than 50%.
With `Cc1cc(O)c(=O)c(O)c2c1C[C@@H](C(C)(O)CN1CCCCC1)CC2` (mixture of isomers), the IC50 in data set [1] came to 0.82 µM. Also, the selectivity ratio in data set [8] worked out at 4.9. In addition, the inhibition entry in data set [2] and in data set [4] was “inactive” in each case. The molecule also registered a CC50 in data set [3] of more than 50 µM. The EC50 in data set [5] (setting [9]) was 10.2 µM.
Consider `CC(C)c1ccc(O)c(=O)c(O)c1` [BETA-THUJAPLICINOL], for which, in data set [1], the half-maximal inhibitory concentration (IC50) is 0.21 µM. The inhibition entry in data set [2], in data set [6] and in data set [4] was “inactive” throughout. Besides, in data set [7], the CC50 worked out at 2.3 µM. Moreover, the EC50 result in data set [5] (cem-ss) is on record as “Not Active”.
